Source: ChEMBL document CHEMBL4359906, “Design and synthesis of new N-terminal fatty acid modified-antimicrobial peptide analogues with potent in vitro biological activity” (Eur J Med Chem, 2019)
Converted amounts (≈) assume the structure as drawn. The source made the active and inactive calls. The rule behind the calls is not given here. Where a SMILES comes first, the peptide text is derived from it.

How the values were obtained:
[1] = test system: Escherichia coli; experiment: Disruption of membrane integrity in Escherichia coli ATCC 25922 assessed as membrane damage by measuring PI fluorescence at 4 times of MIC incubated for 1 hr by PI dye based flow cytometric analysis (reference value: 1.35%); format: functional
[2] = Selectivity index, ratio of MHC10 for human RBC to geometric mean of peptide MIC for gram positive bacteria; format: toxicity; conditions: human red blood cells, read-out: Selectivity Index
[3] = test system: Escherichia coli; experiment: Ratio of antibacterial activity against Escherichia coli ATCC 25922 in presence of KCl to antibacterial activity against Escherichia coli ATCC 25922; format: functional
[4] = test system: Erythrocyte; experiment: Hemolytic activity in human RBC measured after 1 hr by microplate reader analysis; format: ADME, cell-based
[5] = test system: Pseudomonas aeruginosa; experiment: Antibacterial activity against Pseudomonas aeruginosa ATCC 27853 after 18 hrs by CLSI based broth microdilution method; format: functional; conditions: ATCC 27853, 18 h
[6] = test system: Staphylococcus aureus; experiment: Antibacterial activity against Staphylococcus aureus ATCC 25923 after 18 hrs in presence of NaCl by CLSI based broth microdilution method (reference value: 64 microM); format: functional; conditions: ATCC 25923, 18 h
[7] = test system: Escherichia coli; experiment: Induction of membrane disruption in Escherichia coli ATCC 25922 assessed as corrugated membrane surface at 4 times of MIC after 2 hrs by SEM analysis; format: functional, organism-based
[8] = test system: Escherichia coli; experiment: Antibacterial activity against Escherichia coli ATCC 25922 after 18 hrs in presence of FeCl3 by CLSI based broth microdilution method (reference value: 64 microM); format: functional; conditions: ATCC 25922, 18 h
[9] = test system: Escherichia coli; experiment: Antibacterial activity against Escherichia coli ATCC 25922 after 18 hrs by CLSI based broth microdilution method; format: functional; conditions: ATCC 25922, 18 h
[10] = test system: Escherichia coli; experiment: Antimicrobial activity against Escherichia coli ATCC 25922 at 1 mM preincubated for 6 hrs in presence of 2 ug/ml chymotrypsin and measured after 18 hrs by microplate reader analysis; format: functional, organism-based
[11] = test system: Staphylococcus aureus; experiment: Ratio of antibacterial activity against Staphylococcus aureus ATCC 25923 in presence of NaCl to antibacterial activity against Staphylococcus aureus ATCC 25923; format: functional
[12] = test system: Klebsiella pneumoniae; experiment: Antibacterial activity against Klebsiella pneumoniae ATCC 700603 after 18 hrs by CLSI based broth microdilution method; format: functional; conditions: Klebsiella pneumoniae, 700603, 18 h
[13] = test system: Escherichia coli; experiment: Induction of membrane disruption in Escherichia coli ATCC 25922 assessed as degeneration in membrane at 4 times of MIC after 2 hrs by SEM analysis; format: functional, organism-based
[14] = test system: Escherichia coli; experiment: Ratio of MIC for Escherichia coli ATCC 25922 preincubated for 1 hr in presence of 10% mouse serum and measured after 18 hrs to MIC for antibacterial activity against Escherichia coli ATCC 25922 after 18 hrs; format: functional
[15] = test system: Escherichia coli; experiment: Induction of membrane disruption in Escherichia coli ATCC 25922 assessed as rough membrane surface at 4 times of MIC after 2 hrs by SEM analysis; format: functional, organism-based
[16] = test system: Staphylococcus aureus; experiment: Ratio of antibacterial activity against Staphylococcus aureus ATCC 25923 in presence of KCl to antibacterial activity against Staphylococcus aureus ATCC 25923; format: functional
[17] = test system: Escherichia coli; experiment: Induction of membrane disruption in Escherichia coli ATCC 25922 assessed as fracture in membrane at 4 times of MIC after 2 hrs by SEM analysis; format: functional, organism-based
[18] = test system: Staphylococcus aureus; experiment: Antibacterial activity against Staphylococcus aureus ATCC 25923 after 18 hrs in presence of MgCl2 by CLSI based broth microdilution method (reference value: 64 microM); format: functional; conditions: ATCC 25923, 18 h
[19] = test system: Escherichia coli; experiment: Antibacterial activity against Escherichia coli ATCC 25922 after 18 hrs in presence of KCl by CLSI based broth microdilution method (reference value: 64 microM); format: functional; conditions: ATCC 25922, 18 h
[20] = test system: Bacillus subtilis; experiment: Antibacterial activity against Bacillus subtilis ATCC 23857 after 18 hrs by CLSI based broth microdilution method; format: functional; conditions: ATCC 23857, 18 h
[21] = test system: Escherichia coli; experiment: Ratio of antibacterial activity against Escherichia coli ATCC 25922 in presence of NaCl to antibacterial activity against Escherichia coli ATCC 25922; format: functional
[22] = test system: Staphylococcus aureus; experiment: Antibacterial activity against Staphylococcus aureus ATCC 25923 after 18 hrs in presence of KCl by CLSI based broth microdilution method (reference value: 64 microM); format: functional; conditions: ATCC 25923, 18 h
[23] = test system: Escherichia coli; experiment: Disruption of membrane integrity in Escherichia coli ATCC 25922 assessed as membrane damage by measuring PI fluorescence at 2 times of MIC incubated for 1 hr by PI dye based flow cytometric analysis (reference value: 1.35%); format: functional
[24] = test system: Escherichia coli; experiment: Antimicrobial activity against Escherichia coli ATCC 25922 at 1 mM preincubated for 6 hrs in presence of 0.2 ug/ml trypsin and measured after 18 hrs by microplate reader analysis; format: functional, organism-based
[25] = test system: Escherichia coli; experiment: Antibacterial activity against Escherichia coli ATCC 25922 after 18 hrs in presence of NaCl by CLSI based broth microdilution method (reference value: 64 microM); format: functional; conditions: ATCC 25922, 18 h
[26] = Selectivity index, ratio of MHC10 for human RBC to geometric mean of peptide MIC for gram negative bacteria; format: toxicity; conditions: human red blood cells, read-out: Selectivity Index
[27] = test system: Staphylococcus aureus; experiment: Antibiofilm activity against Staphylococcus aureus ATCC 25923 at 1 to 2 times of MIC after 24 hrs by crystal violet staining based assay; format: functional, organism-based
[28] = test system: Escherichia coli; experiment: Antibacterial activity against Escherichia coli ATCC 43837 after 18 hrs by CLSI based broth microdilution method; format: functional; conditions: ATCC 43837, 18 h
[29] = test system: Staphylococcus aureus; experiment: Ratio of antibacterial activity against Staphylococcus aureus ATCC 25923 in presence of MgCl2 to antibacterial activity against Staphylococcus aureus ATCC 25923; format: functional
[30] = test system: Pseudomonas aeruginosa; experiment: Potentiation of polymyxin B-induced antibacterial activity against Pseudomonas aeruginosa ATCC 27853 assessed as FICI after 18 hrs by checker board assay; format: functional
[31] = test system: Escherichia coli; experiment: Antimicrobial activity against Escherichia coli ATCC 25922 preincubated for 6 hrs in presence of 10% mouse serum and measured after 18 hrs by CLSI-based broth microdilution assay (reference value: 64 microM); format: functional
[32] = test system: Escherichia coli; experiment: Ratio of antibacterial activity against Escherichia coli ATCC 25922 in presence of MgCl2 to antibacterial activity against Escherichia coli ATCC 25922; format: functional
[33] = test system: Escherichia coli; experiment: Antibacterial activity against Escherichia coli ATCC 25922 after 18 hrs in presence of MgCl2 by CLSI based broth microdilution method (reference value: 64 microM); format: functional; conditions: ATCC 25922, 18 h
[34] = test system: Staphylococcus aureus; experiment: Antibacterial activity against Staphylococcus aureus ATCC 25923 after 18 hrs in presence of FeCl3 by CLSI based broth microdilution method (reference value: 64 microM); format: functional; conditions: ATCC 25923, 18 h
[35] = test system: Staphylococcus aureus; experiment: Antibacterial activity against Staphylococcus aureus ATCC 25923 after 18 hrs by CLSI based broth microdilution method; format: functional; conditions: ATCC 25923, 18 h
[36] = test system: Escherichia coli; experiment: Ratio of antibacterial activity against Escherichia coli ATCC 25922 in presence of FeCl3 to antibacterial activity against Escherichia coli ATCC 25922; format: functional
[37] = test system: Klebsiella pneumoniae; experiment: Potentiation of rifampicin-induced antibacterial activity against Klebsiella pneumoniae ATCC 700603 assessed as FICI after 18 hrs by checker board assay; format: functional
[38] = test system: Escherichia coli; experiment: Potentiation of polymyxin B-induced antibacterial activity against Escherichia coli ATCC 25922 assessed as FICI after 18 hrs by checker board assay; format: functional
[39] = test system: Escherichia coli; experiment: Antimicrobial activity against Escherichia coli ATCC 25922 preincubated for 1 hr in presence of 10% mouse serum and measured after 18 hrs by CLSI-based broth microdilution assay (reference value: 64 microM); format: functional
[40] = test system: Staphylococcus aureus; experiment: Ratio of antibacterial activity against Staphylococcus aureus ATCC 25923 in presence of FeCl3 to antibacterial activity against Staphylococcus aureus ATCC 25923; format: functional
[41] = test system: Klebsiella pneumoniae; experiment: Potentiation of polymyxin B-induced antibacterial activity against Klebsiella pneumoniae ATCC 700603 assessed as FICI after 18 hrs by checker board assay; format: functional
[42] = test system: Escherichia coli; experiment: Induction of ROS generation in Escherichia coli ATCC 25922; format: functional, organism-based
[43] = test system: Escherichia coli; experiment: Ratio of MIC for Escherichia coli ATCC 25922 preincubated for 6 hrs in presence of 10% mouse serum and measured after 18 hrs to MIC for antibacterial activity against Escherichia coli ATCC 25922 after 18 hrs; format: functional
[44] = test system: Staphylococcus aureus; experiment: Antibacterial activity against methicillin-resistant Staphylococcus aureus 936 after 18 hrs by CLSI based broth microdilution method; format: functional; conditions: Staphylococcus aureus, 936, 18 h
[45] = test system: Escherichia coli; experiment: Potentiation of rifampicin-induced antibacterial activity against Escherichia coli ATCC 25922 assessed as FICI after 18 hrs by checker board assay; format: functional
[46] = test system: Pseudomonas aeruginosa; experiment: Potentiation of rifampicin-induced antibacterial activity against Pseudomonas aeruginosa ATCC 27853 assessed as FICI after 18 hrs by checker board assay; format: functional
[47] = test system: Escherichia coli; experiment: Ratio of MIC for antibacterial activity against Escherichia coli ATCC 25922 after 15 passages to MIC for antibacterial activity against Escherichia coli ATCC 25922 incubated for 18 hrs; format: functional
[48] = test system: Escherichia coli; experiment: Antibacterial activity against Escherichia coli ATCC 25922 at 0.5 times MIC incubated for 18 hrs measured at 1 passages by CLSI based broth microdilution method; format: functional, organism-based

With `CC[C@H](C)[C@H](NC(=O)[C@H](CCCNC(=N)N)NC(=O)[C@H](CCCCN)NC(=O)[C@H](CC(C)C)NC(=O)[C@H](CC(C)C)NC(=O)CN)C(=O)N[C@@H](CCCCN)C(=O)N[C@H](C(=O)N[C@@H](CC(C)C)C(=O)N[C@@H](CC(C)C)C(N)=O)[C@@H](C)O` [ANOPLIN] (H-GLLKRIKTLL-NH2) the Activity [1] was 62.1%, the selectivity ratio [2] was 11.3 and the Ratio [3] was 2 - 4. For the same compound, the MHC10 [4] was > 256 µM, the MIC [5] was 16 µM (≈ 18.5 µg/mL) and the MIC [6] was > 128 µM. For the same compound, the Activity [7] was “Active”, the MIC [8] was 32 µM and the MIC [9] was 64 µM (≈ 73.8 µg/mL). For the same compound, the Activity [10] was “inactive”, the Ratio [11] was 2 - 4 and the MIC [12] was 64 µM (≈ 73.8 µg/mL). For the same compound, the Activity [13] was “Active”, the Ratio [14] was 1 and the Activity [15] was “Active”. The Ratio [16] was 2 - 4, the Activity [17] was “Active” and the MIC [18] was > 128 µM. For the same compound, the MIC [19] was 32 µM, the MIC [20] was 8 µM (≈ 9.23 µg/mL) and the Ratio [21] was 2 - 4. The MIC [22] was 64 µM, the Activity [23] was 20.4% and the Activity [24] was “inactive”. For the same compound, the MIC [25] was 128 µM, the selectivity ratio [26] was 13.5 and the inhibition [27] was “Active”. For the same compound, the MIC [28] was 8 µM (≈ 9.23 µg/mL), the Ratio [29] was 2 - 4 and the “fractional inhibitory concentration index (FICI)” value [30] was 0.3125. For the same compound, the MIC [31] was > 128 µM, the Ratio [32] was 2 - 4 and the MIC [33] was 32 µM. For the same compound, the MIC [34] was 128 µM, the MIC [35] was 64 µM (≈ 73.8 µg/mL) and the Ratio [36] was 2 - 4. The “fractional inhibitory concentration index (FICI)” value [37] was 0.125, the “fractional inhibitory concentration index (FICI)” value [38] was 0.1875 and the MIC [39] was 64 µM. For the same compound, the Ratio [40] was 2 - 4, the “fractional inhibitory concentration index (FICI)” value [41] was 0.3125 and the Activity [42] was “inactive”. The Ratio [43] was >2, the MIC [44] was 64 µM (≈ 73.8 µg/mL) and the “fractional inhibitory concentration index (FICI)” value [45] was 0.125. For the same compound, the “fractional inhibitory concentration index (FICI)” value [46] was 0.1875.

`CO[C@H]1/C=C/O[C@@]2(C)Oc3c(C)c(O)c4c(O)c(c(/C=N/N5CCN(C)CC5)c(O)c4c3C2=O)NC(=O)/C(C)=C\C=C\[C@H](C)[C@H](O)[C@@H](C)[C@@H](O)[C@@H](C)[C@H](OC(C)=O)[C@@H]1C` [RIFAMPIN] gave an MIC [5] of 32 µM (≈ 26.3 µg/mL), an MIC [9] of 4 µM (≈ 3.29 µg/mL) and an MIC [12] of 32 µM (≈ 26.3 µg/mL). For the same compound, the Ratio [47] was >32, the MIC [20] was < 1 µM and the MIC [28] was 2 µM (≈ 1.65 µg/mL). The Activity [48] was “Active”, the MIC [35] was < 1 µM and the MIC [44] was < 1 µM.
